# “And” between values parts separate entries of the source, which are not always exact repeats. Equal values may be shown once.
# Legend:
# rat hepatocytes = assay: Hepatocyte metabolic stability (clearance) assay, rat hepatocytes; conditions: for Negative Control Data, Heat Treated (HT), 15 min / Negative Control Data, Heat Treated (HT), 240 min: heat treated rat hepatocytes; for Negative Control Data, Heat Treated (HT), 15 min / Negative Control Data, Heat Treated (HT), 240 min / Negative Control Data, No cells (NC), 15 min / Negative Control Data, No cells (NC), 240 min / Ln Concentration, 0 min / Ln Concentration, 15 min / Ln Concentration, 30 min / Ln Concentration, 60 min / Ln Concentration, 120 min / Ln Concentration, 240 min / Linear Regression Best-Fit Slope (Ln concentration vs time): 1000 nM; for Negative Control Data, Heat Treated (HT), 15 min / Negative Control Data, Heat Treated (HT), 240 min / Negative Control Data, No cells (NC), 15 min / Negative Control Data, No cells (NC), 240 min: Ln concentration; for Negative Control Data, Heat Treated (HT), 15 min / Negative Control Data, Heat Treated (HT), 240 min / Negative Control Data, No cells (NC), 15 min / Negative Control Data, No cells (NC), 240 min / Ln Concentration, 0 min / Ln Concentration, 15 min / Ln Concentration, 30 min / Ln Concentration, 60 min / Ln Concentration, 120 min / Ln Concentration, 240 min: Rep 1-3; for Clin vitro: rat hepatocytes, 1 µM; for Ln Concentration, 0 min / Ln Concentration, 15 min / Ln Concentration, 30 min / Ln Concentration, 60 min / Ln Concentration, 120 min / Ln Concentration, 240 min / Linear Regression Best-Fit Slope (Ln concentration vs time): suspended rat hepatocytes; for Linear Regression Best-Fit Slope (Ln concentration vs time): time in min
# Description: Information on the chemicals and materials used in the hepatocyte metabolic work can be found in Supplementary Text S9 and Table S3. In vitro evaluations of hepatocyte metabolic stability were performed in human and rat hepatocytes, as previously described. Briefly, pooled, cryopreserved hepatocyte suspensions were thawed, assessed for viability, and then diluted in William’s medium E containing dexamethasone and cell maintenance cocktail B to achieve a cell density of 50,000 cells/100 µL. The assay was started by adding hepatocyte suspensions to wells of 96-well polypropylene plates containing an equal volume of media with 2 µM of analyte (final assay concentration: 1 µM). Plates were placed in a 37 °C cell culture incubator (5% CO2) on a shaker set to 200 rpm. Time points assessed were T0, T15, T30, T60, T120, and T240 min. At each time point, the plates were removed from the shaker and the incubates were crashed with an equal volume of ice-cold ACN containing 1.2% FA and 16 ng/mL of ^13C3 -HFPO-DA. After chilling and centrifugation at 4122× g, the supernatants were transferred to new collection plates and stored at −70 °C until analysis for the parent compound on the Waters instrumentation described below. Immediately prior to analysis, samples were thawed, vortexed, and centrifuged at 4200× g, and then diluted 1:4 in 95:5 H2O/ACN with 2.5 mM of ammonium acetate. Negative controls, including no cell controls and metabolically inactivated hepatocytes, were run concurrently to assess the chemical stability over the time course.
# Intrinsic clearance (Clint; hepatic clearance) calculations are detailed in Supplementary Text S9 [57].
# Targeted, quantitative analysis of in vitro hepatocyte metabolic stability and plasma protein binding assay samples was conducted on a Waters Xevo-TQS micro mass spectrometer (Waters, Milford, MA, USA) ultra-high-performance liquid chromatography tandem mass spectrometry system (UPLC-MS/MS), modified with a PFAS analysis kit. Samples were analyzed in negative ion mode with UniSpray ionization. A CORTECS T3 column (Waters CORTECS, 3 × 100 mm, particle size 2.7 µm) was used for chromatographic separation with a flow rate of 0.6 mL/min and a temperature of 55 °C. Gradient elution was used with eluent A (95:5 H2O/ACN) and eluent B (95:5 ACN/H2O) with 2.5 mM of ammonium acetate. The gradient is available in Table S11. Additional details for MS parameters are found in Table S12 and monitored transitions are found in Table S13.
# Table S2: Data processing parameters used with Sciex MarkerView 1.3.1.
# Support ing Text S9: Hepatocyte Metabolic Stability Assay Materials, Chemicals, and Calculations
# Pooled human and rat cryopreserved primary hepatocyte suspensions were both obtained from
# BioIVT, a US Food and Drug Administration-licensed and inspected donor center, and produced using
# non-transplantable tissue.
# William’s E media, dexamet hasone (98% pure), and cell maintenance cocktail B were obtained from
# Thermo Fisher Scientific (Waltham, MA, USA), the OptiThaw hepatocyte kit from Sekisui/Xenotech
# (Tokyo, Japan), and the trypan blue s (Sekisui/ Xenotech, Tokyo, Japan) and the trypan blue solution from […]
# [1] = Ultracentrifugation plasma protein binding assay, human plasma; type: in vitro ADME; conditions: both sexes, human
# Description: (§1) Information on the chemicals and materials used in the plasma protein binding work can be found in Supplementary Text S10 and Table S3. Human and rodent plasma were evaluated for plasma protein binding using ultracentrifugation, as previously described. Working solutions of 3 mM of HFPO-DA, HFPO-TA, and HFPO-TeA were prepared separately in ethanol, with each working solution containing 3 mM of testosterone (Sigma-Aldrich; ≥98% pure) as a reference compound for assay performance. An aliquot of each stock solution (13.3 µL) was added to separate 15 mL tubes with 3.987 mL of plasma for a final assay concentration of 10 µM. The plasma solutions were incubated at 37 °C and 125 rpm for 60 min. One-hour stability samples (T60 min) were drawn in triplicate and diluted in four volumes of plasma ultrafiltrate. Aliquots (1 mL) from each plasma solution were drawn in triplicate and transferred to polycarbonate tubing. These samples underwent ultracentrifugation (Beckman OptimaMax; Beckman Coulter Inc., Brea, CA, USA) at 850,000× g for 4 h at 37 °C.
# (§2) The remaining plasma solutions were returned for incubation at 37 °C and 125 rpm for an additional 4 h. Five-hour stability samples (T300 min) were then drawn in triplicate and diluted in four volumes of plasma ultrafiltrate. After ultracentrifugation, the aqueous fraction (AF) was collected by transferring the supernatant to a new tube and diluting in an equal volume of plasma for matrix matching. All samples were combined with 3 volumes of ice-cold ACN containing 16 ng/mL of ^13C3-HFPO-DA and 16 ng/mL of ^13C-Testosterone (Cambridge Isotope Laboratories; 98% pure). Samples were vigorously mixed, stored for 10 min at −20 °C, and then centrifuged at 12,000× g for 10 min at 4 °C. Supernatants were collected then stored at −70 °C prior to analysis.
# (§3) Fraction unbound (fu) in plasma (fup) and percent stability calculations are detailed in Supplementary Text S10. Hepatic clearance, the fu in blood (fub) (fu in plasma adjusted for blood:plasma partitioning), and renal clearance were used to derive the steady-state concentration (Css) of each compound that will be used for in vitro–in vivo extrapolation (IVIVE). Renal clearance was calculated using the glomerular filtration rate (a species-dependent constant) and the fub. The Css calculation is detailed in Supplementary Text S11.
# (§4) The gradient is available in Table S11. […]
# (§5) Chemical stability in plasma was assessed
# (§6) (F) Percent Stability = T300minutesT60minutes∗100
# Human plasma = assay: as above; type: in vitro ADME; conditions: 10000 nM; for Average Stability (T5hr/ T1hr): 37 °C; for Aqueous Fraction concentration: after ultracentrifugation; for Aqueous Fraction concentration / Fraction Unbound in plasma (fup) / Stability (T5hr/ T1hr) / Time 1 hr concentration / Time 5 hr concentration: replicates A-C
# Description: as §1, §2, §3, §4, §5, §6
# [2] = system: Sprague Dawley rodent plasma; assay: Ultracentrifugation plasma protein binding assay, rat plasma; type: in vitro ADME; conditions: rat plasma, 10000 nM
# Description: as §1, §2, §3, §4, §5, §6
# [3] = as above; type: in vitro ADME; conditions: both sexes, Sprague Dawley, rat
# Description: as §1, §2, §3, §4, §5, §6
# [4] = plasma, 10 µM, ultracentrifugation, read-out: Experimental fup (average fraction unbound in plasma)
# [5] = pooled human plasma, 10000 nM, replicates A-C, read-out: Fraction Unbound in plasma (fup)
# [6] = plasma, Rat plasma, 10 µM, ultracentrifugation, read-out: Experimental fup (average fraction unbound in plasma)
# [7] = rat plasma, 10000 nM, Rep A, read-out: Fraction Unbound in plasma (fup), Rep A
# [8] = rat plasma, 10000 nM, Rep C, read-out: Fraction Unbound in plasma (fup), Rep C
Structure (SMILES),"Negative Control Data, Heat Treated (HT), 15 min (rat hepatocytes)","Negative Control Data, Heat Treated (HT), 240 min (rat hepatocytes)","Negative Control Data, No cells (NC), 15 min (rat hepatocytes)","Negative Control Data, No cells (NC), 240 min (rat hepatocytes)",Clin vitro (rat hepatocytes) [µL/min/106 cells],"Ln Concentration, 0 min (rat hepatocytes)","Ln Concentration, 15 min (rat hepatocytes)","Ln Concentration, 30 min (rat hepatocytes)","Ln Concentration, 60 min (rat hepatocytes)","Ln Concentration, 120 min (rat hepatocytes)","Ln Concentration, 240 min (rat hepatocytes)",Linear Regression Best-Fit Slope (Ln concentration vs time) (rat hepatocytes),"fraction unbound at 4 h, 10 µM [1, 4]","fraction unbound at 4 h, 10 µM [1, 5]",Average Stability (T5hr/ T1hr) (Human plasma),Aqueous Fraction concentration (Human plasma),Fraction Unbound in plasma (fup) (Human plasma),Stability (T5hr/ T1hr) (Human plasma),Time 1 hr concentration (Human plasma),Time 5 hr concentration (Human plasma),further results
"O=C(O)C(F)(OC(F)(F)C(F)(OC(F)(F)C(F)(OC(F)(F)C(F)(F)C(F)(F)F)C(F)(F)F)C(F)(F)F)C(F)(F)F (centres unmarked) [HFPO-TeA, perfluoro-(2,5,8-trimethyl-3,6,9-trioxadodecanoic) acid]",2.6401 and 2.4357 and 2.5979,3.3942 and 3.4965 and 3.9620,2.6401 and 2.4357 and 2.5979,3.6957 and 3.6025 and 3.5122,0,3.0306 and 2.9008 and 2.9997,3.0932 and 2.2706 and 2.9515,4.2083 and 3.3638 and 2.7617,3.2078 and 2.9997 and 2.8429,4.0404 and 3.2267 and 2.8611,4.3810 and 4.0785 and 4.0446,0.001258,0.0124,0.0121,1.0363,83.20 nM and 80 nM and 121.60 nM,0.0109 and 0.0142,0.9304 and 0.9406 and 1.2379,7.36 µM and 7.808 µM and 6.928 µM,6.848 µM and 7.344 µM and 8.576 µM,"Average Stability (T5hr/ T1hr) [2]: 1.1996; Aqueous Fraction, Rep A [2]: 38.40 nM; Stability (T5hr/ T1hr), Rep A [2]: 0.9294; Time 1 hr concentration, Rep A [2]: 8.384 µM; Time 5 hr concentration, Rep A [2]: 7.792 µM; Aqueous Fraction, Rep B ([2]; Rep B): 35.20 nM; Stability (T5hr/ T1hr), Rep B ([2]; Rep B): 1.0392; Time 1 hr concentration, Rep B ([2]; Rep B): 6.528 µM; Time 5 hr concentration, Rep B ([2]; Rep B): 6.784 µM; Aqueous Fraction, Rep C [2]: 48.00 nM; Stability (T5hr/ T1hr), Rep C [2]: 1.6301; Time 1 hr concentration, Rep C [2]: 3.936 µM; Time 5 hr concentration, Rep C [2]: 6.416 µM; fraction unbound at 4 h, 10 µM [3, 6]: 0.0059; fraction unbound at 4 h, 10 µM [3, 7]: 0.00493; fraction unbound at 4 h, 10 µM ([3]; rat plasma, 10000 nM, Rep B, read-out: Fraction Unbound in plasma (fup), Rep B): 0.00519; fraction unbound at 4 h, 10 µM [3, 8]: 0.00748"
"O=C(O)C(F)(OC(F)(F)C(F)(F)C(F)(F)F)C(F)(F)F (centres unmarked) [HFPO-DA, perfluoro-2-methyl-3-oxahexanoic acid]",4.4280 and 4.9483 and 5.2322,4.4378 and 4.5247 and 4.4650,4.4280 and 4.9483 and 5.2322,4.5318 and 4.4615 and 4.4489,0,4.5114 and 4.4660 and 4.4552,4.5017 and 4.4578 and 4.5341,4.4026 and 4.3249 and 4.4576,4.2774 and 4.4540 and 4.5417,4.3832 and 4.5273 and 4.3707,4.5604 and 4.5454 and 4.5567,0.0002303,0.0098,0.0099,0.9905,72.64 nM and 73.60 nM and 65.28 nM,0.0095,0.9836 and 1.1438 and 0.8441,7.4664 µM and 6.7536 µM and 7.8224 µM,7.344 µM and 7.7248 µM and 6.6032 µM,"Average Stability (T5hr/ T1hr) [2]: 1.0909; Aqueous Fraction, Rep A [2]: 265.60 nM; Stability (T5hr/ T1hr), Rep A [2]: 1.0510; Time 1 hr concentration, Rep A [2]: 8.312 µM; Time 5 hr concentration, Rep A [2]: 8.736 µM; Aqueous Fraction, Rep B ([2]; Rep B): 230.40 nM; Time 1 hr concentration, Rep B ([2]; Rep B): 7.672 µM; Aqueous Fraction, Rep C [2]: 240 nM; Stability (T5hr/ T1hr), Rep C [2]: 1.1308; Time 1 hr concentration, Rep C [2]: 6.848 µM; Time 5 hr concentration, Rep C [2]: 7.744 µM; fraction unbound at 4 h, 10 µM [3, 6]: 0.0307; fraction unbound at 4 h, 10 µM [3, 7]: 0.0304; fraction unbound at 4 h, 10 µM [3, 8]: 0.031"
